Experimental data as given in the supplement of paper PMC10307832.

Assays:
Assay in all cases: relative viability (nuclei count vs DMSO), 5 days (fraction); higher = more cells survive
SK-LU-1 = system: SK-LU-1
Procedure, shortened: (§1)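 A single step with final 0.05% Triton X-100, 1% formaldehyde and 1 ug/ml Hoechst fixed the cells and stained nuclei 5 days after treatment. Lung cancer cell lines in 1536-well plates had been treated by pin tool the day after seeding with one drug alone or a fixed anchor-drug dose plus five library-drug doses (not always all listed) in √10 steps, and nuclei were counted on 4× images. Relative viability is the ratio of nuclei in treated wells to nuclei in vehicle wells, taken as the median of duplicate plates.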

HOP-62 = system: HOP-62
Procedure, shortened: as §1

NCI-H1395 = system: NCI-H1395
Procedure, shortened: as §1

NCI-H2126 = system: NCI-H2126
Procedure, shortened: as §1

ChaGo-K-1 = system: ChaGo-K-1
Procedure, shortened: as §1

NCI-H1793 = system: NCI-H1793
Procedure, shortened: as §1

HCC-78 = system: HCC-78
Procedure, shortened: as §1

EMC-BAC-2 = system: EMC-BAC-2
Procedure, shortened: as §1

HARA = system: HARA
Procedure, shortened: as §1

HCC-15 = system: HCC-15
Procedure, shortened: as §1

NCI-H2228 = system: NCI-H2228
Procedure, shortened: as §1

## O=c1cc(N2CCOCC2)oc2c(-c3cccc4c3sc3ccccc34)cccc12 + Cc1cc(Nc2cc(N3CCN(C)CC3)nc(Sc3ccc(NC(=O)C4CC4)cc3)n2)n[nH]1 [Tozasertib] (partner 0.1 µM)
SK-LU-1; first compound 0.01 µM
  relative viability: 0.314
SK-LU-1; first compound 0.03162 µM
  relative viability: 0.298
SK-LU-1; first compound 0.1 µM
  relative viability: 0.393
SK-LU-1; first compound 0.3162 µM
  relative viability: 0.308
SK-LU-1; first compound 1 µM
  relative viability: 0.329
HOP-62; first compound 0.01 µM
  relative viability: 0.336
HOP-62; first compound 0.03162 µM
  relative viability: 0.315
HOP-62; first compound 0.1 µM
  relative viability: 0.402
HOP-62; first compound 0.3162 µM
  relative viability: 0.325
HOP-62; first compound 1 µM
  relative viability: 0.382
NCI-H1395; first compound 0.01 µM
  relative viability: 0.78
NCI-H1395; first compound 0.03162 µM
  relative viability: 0.776
NCI-H1395; first compound 0.1 µM
  relative viability: 0.659
NCI-H1395; first compound 0.3162 µM
  relative viability: 0.832
NCI-H1395; first compound 1 µM
  relative viability: 0.682
NCI-H2126; first compound 0.01 µM
  relative viability: 0.781
NCI-H2126; first compound 0.03162 µM
  relative viability: 0.839
NCI-H2126; first compound 0.1 µM
  relative viability: 0.839
NCI-H2126; first compound 0.3162 µM
  relative viability: 0.794
NCI-H2126; first compound 1 µM
  relative viability: 0.789
ChaGo-K-1; first compound 0.01 µM
  relative viability: 0.232
ChaGo-K-1; first compound 0.03162 µM
  relative viability: 0.209
ChaGo-K-1; first compound 0.1 µM
  relative viability: 0.198
ChaGo-K-1; first compound 0.3162 µM
  relative viability: 0.222
ChaGo-K-1; first compound 1 µM
  relative viability: 0.209
NCI-H1793; first compound 0.01 µM
  relative viability: 0.352
NCI-H1793; first compound 0.1 µM
  relative viability: 0.324
NCI-H1793; first compound 0.3162 µM
  relative viability: 0.312
NCI-H1793; first compound 1 µM
  relative viability: 0.276
HCC-78; first compound 0.01 µM
  relative viability: 0.417
HCC-78; first compound 0.03162 µM
  relative viability: 0.359
HCC-78; first compound 0.1 µM
  relative viability: 0.417
HCC-78; first compound 0.3162 µM
  relative viability: 0.41
HCC-78; first compound 1 µM
  relative viability: 0.452
EMC-BAC-2; first compound 0.01 µM
  relative viability: 0.303
EMC-BAC-2; first compound 0.03162 µM
  relative viability: 0.29
EMC-BAC-2; first compound 0.1 µM
  relative viability: 0.313
EMC-BAC-2; first compound 0.3162 µM
  relative viability: 0.33
EMC-BAC-2; first compound 1 µM
  relative viability: 0.304
HARA; first compound 0.01 µM
  relative viability: 0.139
HARA; first compound 0.03162 µM
  relative viability: 0.139
HARA; first compound 0.1 µM
  relative viability: 0.477
HARA; first compound 0.3162 µM
  relative viability: 0.103
HARA; first compound 1 µM
  relative viability: 0.128
HCC-15; first compound 0.01 µM
  relative viability: 0.413
HCC-15; first compound 0.03162 µM
  relative viability: 0.379
HCC-15; first compound 0.1 µM
  relative viability: 0.433
HCC-15; first compound 0.3162 µM
  relative viability: 0.33
HCC-15; first compound 1 µM
  relative viability: 0.448
NCI-H2228; first compound 0.01 µM
  relative viability: 0.331
NCI-H2228; first compound 0.03162 µM
  relative viability: 0.267
NCI-H2228; first compound 0.1 µM
  relative viability: 0.217
NCI-H2228; first compound 0.3162 µM
  relative viability: 0.224
NCI-H2228; first compound 1 µM
  relative viability: 0.228
